# Assays:
# CFU-S [1] = assay: Reconstitution of CFU-S and nucleated cells in irradiated mice (4 Gy), i.v. versus i.m.; assay type: in vivo
# Method: A further study of the effect of the peptide, using different methods of administration, on the dynamics of reconstitution of CFU-S, Nucleated blood Cells (NC) in the femoral bone marrow and peritheric blood (mm) of irradiated mice (4 Gy) was conducted.
# Donor mice were irradiated with γ-rays in the dose of 4 Gy. Then they received the petide i.v. or i.m. 1, 2, 3, or 4 times, once a day, starting from the 1 first hour of the 3rd day after the irradiation (10 μg/kg per injection). […] At different intervals after the irradiation 10 mice were taken from each group to determine CFU-S in the bone marrow. The mice were killed, cell suspensions were prepared from the bone marrow and injected to lethally irradiated recipients. NC were counted in the femoral bone marrow and peritheric blood, and the lymphocyte percentage was found.
# [2] = system: karyocytes in femoral bone marrow; assay: Bone marrow regeneration in irradiated mice (4 Gy), scheme 2; assay type: in vivo
# Method: Irradiated mice (4 Gy) received intramuscular injections of the peptide in the dose of 10 μg/kg according to 2 schemes.
# b) According to scheme 2, the peptide injections were made starting from the 3rd day after the irradiation, at the same time of maximum depletion of the pool of mature nucleated cells and the bone marrow. The groups of mice were formed in the same way as in the previous scheme. […] Tables 9 and 10 present the data on karyocyte and lymphocyte counts in blood (per 1 mm^3) of mice treated according to scheme 2.
# The data in Table 11 reflect the process of bone marrow regeneration in control and test irradiated (4 Gy) mice treated with peptide according to scheme 2. The regeneration was equally intensive in all animal groups till the 11th day, from day 14 to day 18 the nucleated cells counts were considerably higher in the bone marrow of test mice.
# [3] = Effect on kidney function (anti-diuretic activity); parameters: species or system white mice; conditions: mouse, in vivo
# Source text: The anti-diuretic activity of H-Ile-Glu-Trp-OH was studied in 40 white mice.
# [4] = system: hemopoietic progenitor cells; assay: Exogenous spleen colonies from irradiated bone marrow cells; assay type: in vivo, mice; conditions: day 9
# Method: For this purpose, known methods using exogenous spleen colonies were applied. […] Different doses of the peptide were injected intravenously (i.v.), intraperitoneally (i.p.), or intramuscularly (i.m.) to lethally irradiated recipients an hour after the injections of irradiated bone marrow. Colonies were counted on day 9. 350 mice were used as test animals. The data for each group are the average of three tests.
# [5] = Local irritating effect, rabbits; assay type: in vivo
# Source text: The local irritating effect of H-Ile-Glu-Trp-OH was studied in 20 guinea pigs and 5 rabbits.
# CFU-S [6] = assay: Regeneration of the CFU-S population in bone marrow of irradiated mice (4 Gy); assay type: in vivo
# Source text: a) Scheme 1: mice received the peptide immediately after irradiation, daily. The mice were divided into groups: a control group--irradiated mice (4 Gy), and test groups--irradiated mice (4 Gy) received the peptide 1, 2, 3, and 4 times daily. Blood samples were taken four hours after the last peptide injection and on the 7th, 10th, and 16th day after the irradiation. Determined were total count of nucleated blood cells (NC) and lymphocyte percentage of them; nucleated cells and the CFU-S population in femoral bone marrow were counted on the 4th, 8th, and the 14th day.
# From each group at least five mice were killed, their bone marrow was taken out and used to prepare the cell suspension, which was injected to lethally irradiated mice. After 9 days, CFU-S was counted in irradiated (4 Gy) donors receiving the peptide by counting the colonies grown on spleen. It was noted that with intramuscular administration of the peptide the CFU-S count in irradiated mice bone marrow was steadily growing starting from the 4th day, leaving the control CFU-S far behind.
# b) According to scheme 2, the peptide injections were made starting from the 3rd day after the irradiation, at the same time of maximum depletion of the pool of mature nucleated cells and the bone marrow. The groups of mice were formed in the same way as in the previous scheme. Blood samples were taken 4 hours after the last injection i.e. on day 6, as well as on days 11, 14, 18, 21. Tables 9 and 10 present the data on karyocyte and lymphocyte counts in blood (per 1 mm^3) of mice treated according to scheme 2.
# hemoglobin, erythrocytes = assay: Erythropoiesis in irradiated mice (4 Gy); assay type: in vivo; conditions: for Hemoglobin Content in blood: 4 Gy
# Source text: The effect of the peptide on erythropoiesis in irradiated mice (4 Gy) was also studied. The mice were irradiated and treated with the peptide as in Example 7.
substance,measurement,setting,value
H-Ile-Glu-Trp-OH,NC content in the bone marrow,CFU-S [1]; IM 10 μg/kg,no effect
same,reconstitution of the CFU-S pool,"CFU-S [1]; IM 10 μg/kg (especially 1, 2, 3 times)","positively influenced the reconstitution of the CFU-S pool earlier, beginning from day 8"
same,reconstitution of the CFU-S pool,"CFU-S [1]; i.v. 10 μg/kg 1, 3, or 4 times",helped better reconstitution of the CFU-S pool by day 14 only
same,Karyocyte Count in Femoral Bone Marrow,"[2]; scheme 2, 1 Time, Day 7",16.4 ± 0.3 × 10^6
same,Karyocyte Count in Femoral Bone Marrow,"[2]; scheme 2, 1 Time, Day 11",17.9 ± 1.8 × 10^6
same,Karyocyte Count in Femoral Bone Marrow,"[2]; scheme 2, 1 Time, Day 14",18.7 ± 1.1 × 10^6
same,Karyocyte Count in Femoral Bone Marrow,"[2]; scheme 2, 1 Time, Day 18",18.0 ± 0.4 × 10^6
same,Karyocyte Count in Femoral Bone Marrow,"[2]; scheme 2, 1 Time, Day 21",22.4 ± 2.2 × 10^6
same,Karyocyte Count in Femoral Bone Marrow,"[2]; scheme 2, 2 Times, Day 7",14.9 ± 1.7 × 10^6
same,Karyocyte Count in Femoral Bone Marrow,"[2]; scheme 2, 2 Times, Day 11",18.6 ± 2.3 × 10^6
same,Karyocyte Count in Femoral Bone Marrow,"[2]; scheme 2, 2 Times, Day 14",14.1 ± 1.7 × 10^6
same,Karyocyte Count in Femoral Bone Marrow,"[2]; scheme 2, 2 Times, Day 18",17.2 ± 1.0 × 10^6
same,Karyocyte Count in Femoral Bone Marrow,"[2]; scheme 2, 2 Times, Day 21",18.9 ± 0.6 × 10^6
same,Karyocyte Count in Femoral Bone Marrow,"[2]; scheme 2, 3 Times, Day 7",12.25 ± 1.3 × 10^6
same,Karyocyte Count in Femoral Bone Marrow,"[2]; scheme 2, 3 Times, Day 11",18.5 ± 2.9 × 10^6
same,Karyocyte Count in Femoral Bone Marrow,"[2]; scheme 2, 3 Times, Day 14",16.9 ± 0.8 × 10^6
same,Karyocyte Count in Femoral Bone Marrow,"[2]; scheme 2, 3 Times, Day 18",16.9 ± 0.8 × 10^6
same,Karyocyte Count in Femoral Bone Marrow,"[2]; scheme 2, 3 Times, Day 21",19.5 ± 1.6 × 10^6
same,Karyocyte Count in Femoral Bone Marrow,"[2]; scheme 2, 4 Times, Day 11",20.3 ± 1.3 × 10^6
same,Karyocyte Count in Femoral Bone Marrow,"[2]; scheme 2, 4 Times, Day 14",18.9 ± 0.2 × 10^6
same,Karyocyte Count in Femoral Bone Marrow,"[2]; scheme 2, 4 Times, Day 18",17.7 ± 1.2 × 10^6
same,Karyocyte Count in Femoral Bone Marrow,"[2]; scheme 2, 4 Times, Day 21",20.0 ± 1.8 × 10^6
same,anti-diuretic activity,[3],not to have any anti-diuretic activity
same,Colony Count,"[4]; bone marrow 1 Gy, 2.5 mcg/Kg i.v.",6.0 ± 0.7
same,Colony Count,"[4]; bone marrow 1 Gy, 10 mcg/Kg i.m.",10.6 ± 0.8
same,Colony Count,"[4]; bone marrow 1 Gy, 10 mcg/Kg i.p.",8.2 ± 0.7
same,Colony Count,"[4]; bone marrow 1 Gy, 10 mcg/Kg i.v.",8.7 ± 0.4
same,Colony Count,"[4]; bone marrow 1 Gy, 25 mcg/Kg i.v.",7.6 ± 0.4
same,Colony Count,"[4]; bone marrow 1 Gy, 50 mcg/Kg i.v.",7.1 ± 0.5
same,Colony Count,"[4]; bone marrow 1 Gy, 100 mcg/Kg i.v.",6.0 ± 0.5
same,Colony Count,"[4]; bone marrow 1 Gy, 200 mcg/Kg i.v.",5.3 ± 0.7
same,Colony Count,"[4]; bone marrow 1 Gy, 500 mcg/Kg i.v.",4.2 ± 0.3
same,Colony Count,"[4]; bone marrow 3 Gy, 10 mcg/Kg i.v.",2.3 ± 0.3
same,local irritating effect,[5],no local irritating effect
same,cellular composition of bone marrow,"CFU-S [6]; scheme 1, i.m.",did not affect
same,regeneration of the CFU-S population,"CFU-S [6]; scheme 1, i.m. (FIG. 1)",markedly stimulated regeneration of the CFU-S population
same,CFU-S (absolute) in femoral bone marrow,"CFU-S [6]; scheme 2, 1 Time, Day 7",459 ± 26
same,CFU-S (absolute) in femoral bone marrow,"CFU-S [6]; scheme 2, 1 Time, Day 11",858 ± 67
same,CFU-S (absolute) in femoral bone marrow,"CFU-S [6]; scheme 2, 1 Time, Day 14",1197 ± 75
same,CFU-S (absolute) in femoral bone marrow,"CFU-S [6]; scheme 2, 2 Time, Day 7",298 ± 27
same,CFU-S (absolute) in femoral bone marrow,"CFU-S [6]; scheme 2, 2 Time, Day 11",846 ± 44
same,CFU-S (absolute) in femoral bone marrow,"CFU-S [6]; scheme 2, 2 Time, Day 14",902 ± 56
same,CFU-S (absolute) in femoral bone marrow,"CFU-S [6]; scheme 2, 3 Time, Day 7",305 ± 33
same,CFU-S (absolute) in femoral bone marrow,"CFU-S [6]; scheme 2, 3 Time, Day 11",1077 ± 56
same,CFU-S (absolute) in femoral bone marrow,"CFU-S [6]; scheme 2, 3 Time, Day 14",1166 ± 68
same,CFU-S (absolute) in femoral bone marrow,"CFU-S [6]; scheme 2, 4 Time, Day 7",431 ± 48
same,CFU-S (absolute) in femoral bone marrow,"CFU-S [6]; scheme 2, 4 Time, Day 11",1147 ± 55
same,CFU-S (absolute) in femoral bone marrow,"CFU-S [6]; scheme 2, 4 Time, Day 14",1434 ± 89
same,"Erythrocyte counts, test versus control groups","hemoglobin, erythrocytes; 4 Gy mice",did not differ
same,restoration of hemoglobin level,"hemoglobin, erythrocytes; 4 Gy treated mice (control: by day 14)",become normal by the 11th day
same,Hemoglobin Content in blood,"hemoglobin, erythrocytes; scheme 2, 1 Time, Day 7",9.4 ± 0.8 r/dl
same,Hemoglobin Content in blood,"hemoglobin, erythrocytes; scheme 2, 1 Time, Day 11",12.6 ± 0.1 r/dl
same,Hemoglobin Content in blood,"hemoglobin, erythrocytes; scheme 2, 1 Time, Day 14",11.8 ± 0.5 r/dl
same,Hemoglobin Content in blood,"hemoglobin, erythrocytes; scheme 2, 1 Time, Day 18",12.1 ± 0.1 r/dl
same,Hemoglobin Content in blood,"hemoglobin, erythrocytes; scheme 2, 1 Time, Day 21",12.1 ± 0.4 r/dl
same,Hemoglobin Content in blood,"hemoglobin, erythrocytes; scheme 2, 2 Times, Day 7",9.6 ± 0.4 r/dl
same,Hemoglobin Content in blood,"hemoglobin, erythrocytes; scheme 2, 2 Times, Day 11",12.0 ± 0.1 r/dl
same,Hemoglobin Content in blood,"hemoglobin, erythrocytes; scheme 2, 2 Times, Day 14",10.8 ± 0.8 r/dl
same,Hemoglobin Content in blood,"hemoglobin, erythrocytes; scheme 2, 2 Times, Day 18",11.5 ± 0.6 r/dl
same,Hemoglobin Content in blood,"hemoglobin, erythrocytes; scheme 2, 2 Times, Day 21",11.7 ± 0.6 r/dl
same,Hemoglobin Content in blood,"hemoglobin, erythrocytes; scheme 2, 3 Times, Day 7",10.15 ± 0.8 r/dl
same,Hemoglobin Content in blood,"hemoglobin, erythrocytes; scheme 2, 3 Times, Day 11",11.9 ± 0.4 r/dl
same,Hemoglobin Content in blood,"hemoglobin, erythrocytes; scheme 2, 3 Times, Day 14",12.1 ± 0.2 r/dl
same,Hemoglobin Content in blood,"hemoglobin, erythrocytes; scheme 2, 3 Times, Day 18",11.7 ± 0.2 r/dl
same,Hemoglobin Content in blood,"hemoglobin, erythrocytes; scheme 2, 3 Times, Day 21",11.9 ± 0.3 r/dl
same,Hemoglobin Content in blood,"hemoglobin, erythrocytes; scheme 2, 4 Times, Day 7",14.4 ± 0.9 r/dl
same,Hemoglobin Content in blood,"hemoglobin, erythrocytes; scheme 2, 4 Times, Day 11",12.2 ± 0.1 r/dl
same,Hemoglobin Content in blood,"hemoglobin, erythrocytes; scheme 2, 4 Times, Day 14",12.0 ± 0.2 r/dl
same,Hemoglobin Content in blood,"hemoglobin, erythrocytes; scheme 2, 4 Times, Day 18",11.7 ± 0.4 r/dl
same,Hemoglobin Content in blood,"hemoglobin, erythrocytes; scheme 2, 4 Times, Day 21",12.0 ± 0.6 r/dl

# — US6159940A, “Method for modulating hemopoiesis” (Immunotech Developments Inc., priority 1999, dated 2000)
